What was measured:
COX-2 enzyme = molecular target: T1, COX-2 enzyme (Homo sapiens, UniProt P35354); assay: biochemical; assay type: biochemical; conditions: three replicates
T1 sequence (P35354 18-604): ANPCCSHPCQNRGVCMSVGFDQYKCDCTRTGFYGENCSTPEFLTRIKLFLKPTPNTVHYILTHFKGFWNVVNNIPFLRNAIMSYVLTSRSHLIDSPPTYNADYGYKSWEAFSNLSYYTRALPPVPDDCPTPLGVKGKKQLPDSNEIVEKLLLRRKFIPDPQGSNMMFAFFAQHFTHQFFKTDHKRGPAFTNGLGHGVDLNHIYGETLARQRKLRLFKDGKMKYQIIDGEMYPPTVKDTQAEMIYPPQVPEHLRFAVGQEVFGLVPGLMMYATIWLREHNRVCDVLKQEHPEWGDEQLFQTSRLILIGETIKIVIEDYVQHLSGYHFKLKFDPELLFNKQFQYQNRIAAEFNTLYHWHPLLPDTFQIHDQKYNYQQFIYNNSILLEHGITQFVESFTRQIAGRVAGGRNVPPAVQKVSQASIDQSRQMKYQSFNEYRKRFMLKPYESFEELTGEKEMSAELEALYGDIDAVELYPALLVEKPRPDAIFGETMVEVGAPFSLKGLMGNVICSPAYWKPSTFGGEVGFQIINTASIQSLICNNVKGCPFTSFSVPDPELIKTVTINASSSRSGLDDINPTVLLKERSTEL
Protocol: All in vitro determinations were performed in triplicate and reported as mean ± standard deviation. The IC50 values were determined by transforming the concentrations to logarithmic form and applying a non-linear regression equation for inhibitors (log inhibitor) versus the normalized response-variable slope equation. In vitro studies were analyzed using one-way ANOVA and Tukey’s test, with p values under < 0.05 regarded as significant. […] All figures and statistical analyses were generated with GraphPad Prism version 8.0® for Windows (GraphPad Software, San Diego, California USA).
The inhibitory activity of the tested samples against COX-2 enzyme was determined colorimetrically ^6. Celecoxib was used as a reference drug.

5-LOX = molecular target: T2, 5-LOX (Homo sapiens, UniProt P09917); assay: In vitro lipoxygenase (5-LOX) inhibitory activity; assay type: biochemical; conditions: three replicates
T2 sequence (P09917 1-674): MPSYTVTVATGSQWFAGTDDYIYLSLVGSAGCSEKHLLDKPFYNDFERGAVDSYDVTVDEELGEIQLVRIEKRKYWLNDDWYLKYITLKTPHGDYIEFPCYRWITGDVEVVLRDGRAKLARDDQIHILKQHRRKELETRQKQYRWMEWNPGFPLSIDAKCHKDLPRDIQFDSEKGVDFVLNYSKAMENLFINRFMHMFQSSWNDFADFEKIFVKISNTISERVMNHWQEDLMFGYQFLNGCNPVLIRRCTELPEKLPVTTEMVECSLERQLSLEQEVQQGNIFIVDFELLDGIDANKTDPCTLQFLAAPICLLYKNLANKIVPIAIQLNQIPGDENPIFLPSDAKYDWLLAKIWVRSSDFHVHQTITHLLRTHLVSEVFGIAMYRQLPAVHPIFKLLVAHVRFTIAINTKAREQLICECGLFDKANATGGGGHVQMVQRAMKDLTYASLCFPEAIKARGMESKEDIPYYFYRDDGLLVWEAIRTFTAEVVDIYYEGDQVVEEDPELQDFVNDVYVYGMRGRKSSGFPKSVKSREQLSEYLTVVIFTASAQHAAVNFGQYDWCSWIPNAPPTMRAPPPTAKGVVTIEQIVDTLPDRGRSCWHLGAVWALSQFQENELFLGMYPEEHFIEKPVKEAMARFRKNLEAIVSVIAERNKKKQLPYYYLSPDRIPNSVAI
Protocol: All in vitro determinations were performed in triplicate and reported as mean ± standard deviation. The IC50 values were determined by transforming the concentrations to logarithmic form and applying a non-linear regression equation for inhibitors (log inhibitor) versus the normalized response-variable slope equation. […] All figures and statistical analyses were generated with GraphPad Prism version 8.0® for Windows (GraphPad Software, San Diego, California USA).
The 5-LOX inhibitory activity was determined according to a previous method ^7. […] The IC50 of each tested sample was calculated.

[1] = test system: cerebral cortex and hippocampus of MSG-treated rats; assay: Brain histopathology (H&E) in MSG-induced neurotoxicity in rats; assay type: in vivo, Wistar rats; conditions: standard 30 mg/kg orally, 14 days
Protocol: One day post the last dose, rats were anesthetized using ketamine 90 mg i.p and Blood was drawn from the Orbital sinus[22] followed by euthanizing of all rats[22]. […] The whole brains were expunged, washed with cold saline, wiped with filter paper, and split into two portions(hemispheres): one hemisphere was used for histopathological examinations following formalin fixation, however the other hemisphere was snap-frozen in liquid nitrogen and kept at − 80 °C to be used for biochemical assessment (MDA, GSH and TNF-α) and for RNA extraction. Samples were assayed in triplicates[2].
Brain specimens were preserved in 10% neutral buffered formalin followed by processing in increasing concentrations of ethanol and xylene. […]

[2] = test system: Tumor necrosis factor alpha; assay: TNF-α immunohistochemistry in cerebral cortex, MSG-induced neurotoxicity in rats; assay type: in vivo, Wistar rats; conditions: standard 30 mg/kg orally, 14 days
Protocol: Sixty-three rats were randomly allocated into nine experimental groups (n = 7): Control Group; served as negative control that received distilled water (DW) at the volume of 1 ml/rat orally via an intragastric tube once a day for 14 days. MSG Group, served as control positive where rats received DW at the volume of 0.5 mL/rats orally + 2 g/kg weight MSG dissolved in normal saline at the volume of 0.5 mL/rats orally via an intragastric tube once a day for 14 days[21]. Treated groups received MSG same way as MSG group along with various treatments as following: AS 200, 400 Groups; received Achillea santolina methanolic extract at doses of 200, 400 mg/kg, respectively. MF 200,400; received methylene chloride fraction of Achillea santolina extract with the same two doses and volume suspended in DW, BF 200, 400 received butanol fraction of Achillea santolina extract with the same two doses and volume suspended in DW, and standard group (Std): received Dextromethorphan 30 mg/kg at the volume of 0.5 mL/rats orally.
Tumor necrosis factor alpha was detected in paraffin embedded tissue by immunoperoxidase technique. Briefly, tissue sections were deparaffinized and then incubated in citrate buffer PH 6 for antigen retrieval. […] Area percent of positive staining was measured by Image J software in 3 sections/ group at 200X magnification.

SMILES: O=c1cc(-c2ccc(O)cc2)oc2cc(O)c([C@@H]3O[C@H](CO)[C@@H](O)[C@H](O)[C@H]3O)c(O)c12 [Isovitexin, Apigenin 6-C-β-glucopyranoside]
- COX-2 inhibitory activity IC50 (COX-2 enzyme): most powerful
- 5-LOX inhibitory potential IC50 (5-LOX): highest inhibitory potential

SMILES: O=c1c(O[C@@H]2O[C@H](CO)[C@@H](O)[C@H](O)[C@H]2O)c(-c2ccc(O)cc2)oc2cc(O)cc(O)c12 [Kaempferol-3-O-glucoside, Kaempferol 3-O-β-glucopyranoside]
- IC50 (5-LOX; read-out: 5-LOX inhibitory potential IC50): 6.28 ± 0.16 µM

SMILES: O=c1cc(-c2ccc(O)c(O)c2)oc2cc(O)cc(O)c12 [Luteolin]
- IC50 (COX-2 enzyme; read-out: COX-2 inhibitory activity IC50): 12.04 ± 0.08 µM

SMILES: COc1ccc2c(c1)[C@]13CCCC[C@@H]1[C@H](C2)N(C)CC3 [dextromethorphan, Dextromethorphan]
- neuronal degeneration and gliosis, cerebral cortex [1]: mild
- neuronal degeneration and gliosis, hippocampus [1]: mild
- TNF-α expression in cerebral cortex (immunohistochemistry) [2]: weak

Source: publication PMC12062363, “Phytochemical analysis and neuroprotective potential of Achillea santolina L. fractions” (Scientific Reports, 2025)
